“Also recorded” adds a separate entry of the source. Where two headings read alike, the source gives them in different places. Non-standard residues stand in square brackets, D forms with d. *: point of attachment. Benzoyl(4-F) = O=C(c1ccc(F)cc1)*; Cit = NC(=O)NCCC[C@H](N)C(=O)O
Columns and labels:
[1] = system: H460 cells (large cell carcinoma); test: Proliferation / survival assay and Giemsa stain, H460; type: cell-based, human; settings: for H460 tumor cell proliferation, agent alone: 0.1 μg/ml, did not completely inhibit proliferation
Experimental: (§1) Color extraction was done using 0.1 N HCl. […] 6 wells were determined for each time point.

[2] = system: A549 cells (Adenocarcinoma); settings: for A549 tumor cell proliferation, agent alone: 0.1 μg/ml, did not completely inhibit proliferation
Experimental: To measure cell proliferation, 4000 cells were seeded into 96-well cell culture plates with 200 μl RPMI 1640 medium supplemented with 10% FCS under the following conditions: 37° C., and 5% CO2. Twenty-four hours later, the medium was to changed to RPMI 1640 supplemented with 1% FCS. 20 μg\ml, 50 μg/ml or 100 μg\ml BKT140, with or without Cisplatin 0.1 μg/ml or paclitaxel 0.1 μg/ml to 1 μg/ml μg/ml were added to the medium. For radiation experiments, prior to plating of cells, the cells were irradiated at the following doses 500 to 2000 Rad. Cultured cells were fixed with 2.5% Gluteraldehyde at the indicated time points and stained with 1% Methylene Blue. Color extraction was done using 0.1 N HCl. Absorbance of the solution in each well at 570 nm was read with micro-plate reader (Anthos Htll). 6 wells were determined for each time point.

[3] = system: NSCLC cell lines (H358, A549, H460, H1299 and L4); test: Colony assay (agar), NSCLC cell lines; type: cell-based, human
Experimental: (§2) The H460 (large cell carcinoma), A549 (Adenocarcinoma), H358 (Bronchoalveolar carcinoma), H1299 (large cell carcinoma)—cell lines were all purchased from ATCC and were maintained in RPMI (Gibco Laboratories, Grand Island, N.Y.) containing 10% fetal calf serum (FCS), 1 mM L-glutamine, 100 U/ml penicillin, and 0.01 mg/ml streptomycin (Biological Industries, Kibbutz Beth Haemek, Israel). L-4 (a primary NSCLC cell line) was generated from large cell carcinoma as previously described (Wald et al, J Thorac Cardiovasc Surg. 2011 June; 141(6): 1503-12).
(§3) Agar base layer was prepared as follows: 45 ml of RPMI+12% FCS was mixed with 15 ml of RPMI X2+12% FCS and with 15 ml of 2.5% agar in double distilled water. Tumor cells were suspended in RPMI+10% FCS. Cell suspension was mixed in a ratio of 1:3 with the agar base solution. This mixture was then plated on top of a preformed solid agar base. […] Fourteen days later, the number of colonies was counted in ten different fields.
(§4) Data was expressed as mean ±standard error (SE) and as absolute values. Continuous data with normal distribution were analyzed using T-test. Categorical data were analyzed using Mann-Whitney U test. A p value of 0.05 was considered significant. * P<0.05, ** P<0.01. Statistical analyses were performed using (SPSS software, (IBM).

[4] = system: H460 cells (large cell carcinoma); test: Colony assay (agar), H460; type: cell-based, human
Experimental: as §2, §3, §4

[5] = system: A549 cells (Adenocarcinoma); test: Colony assay (agar), A549; type: cell-based, human
Experimental: as §2, §3, §4

[6] = system: H1299 cells (large cell carcinoma); test: Colony assay (agar), H1299; type: cell-based, human; settings: 100 μg\ml BKT140 with CXCL12
Experimental: as §2, §3, §4

[7] = system: H358 cells (Bronchoalveolar carcinoma); test: Colony assay (agar), H358; type: cell-based, human; settings: 100 μg\ml BKT140 with CXCL12
Experimental: as §2, §3, §4

[8] = system: NSCLC cell lines (H358, A549, H460, H1299 and L4); test: Proliferation and survival assays, NSCLC cell lines; type: cell-based, human; settings: 20 or 100 μg/ml BKT140, dose dependant
Experimental: as §1

H460 derived tumors = test: H460 derived xenograft growth in Nude mice; type: in vivo; settings: BKT140 400 μg/mice S.C. once daily 6/7 days a week
Experimental: (§5) 1*10^6 H460 cells mixed in 100 μl RPMI 1640 and 100 μl matrigel (BD Bioscience) were injected subcutaneously (S.C.) into the right flank of Nude mice. Tumor growth was followed for 19 days. 1*10^6 A549 cells mixed in 100 μl RPMI 1640 and 100 μl matrigel (BD Bioscience) were injected S.C. into the right flank of Nude mice. Tumor growth was followed for 35 days. Systemic BKT140 administration was performed as follows: BKT140 (400 μg/mice dissolved in PBS) was administered once daily 6/7 days a week, by S.C. injection into the left flank at a point distant at least 1.5 cm from the right sided tumor. Tumors size was calculated by measurement of tumor length and width using the following formula: 4/3*π*(length/2)*(width/2)^2.

A549 derived tumors = test: A549 derived xenograft growth in Nude mice; type: in vivo; settings: BKT140 400 μg/mice S.C. once daily 6/7 days a week
Experimental: as §5

human CXCR4 = molecular target: T1, human CXCR4 (Homo sapiens, UniProt P61073); test: Immunohistochemistry for CXCR4 in H460 derived tumors after S.C. BKT140; type: in vivo; settings: BKT140 S.C. at a site distant from the tumor, 6 hours prior to sacrification
T1 construct: Tissue sections from H460 derived tumors were tested for CXCR4 expression; endogenous in cells; host or cells: H460 NSCLC cells grown as subcutaneous xenografts in Nude mice
Experimental: as §5
Tissue sections of tumor-bearing Nude mice were routinely fixed with formalin and embedded in paraffin. Antigen retrieval was performed, and sections were stained with either mAb 44708 (R&D Systems, Minneapolis, MN) or 12G5 (R&D Systems) for human CXCR4 (1:100) using a standard indirect avidin-biotin HRP method according to the manufacturer's instructions. 3-Amino-9-ethylcarbazole was used for color development and sections were counterstained with hematoxylin. As negative controls, sections were stained either with no primary Ab (PBS) or with an isotype-matched control Ab.

[9] = system: bone marrow derived cells; settings: cited from earlier work
[10] = increasing BKT140 with irradiation 500 Rad, cisplatin 0.1 μg/ml or paclitaxel 0.1 μg/ml (paclitaxel data not shown)

T1 sequence (P61073 whole entry): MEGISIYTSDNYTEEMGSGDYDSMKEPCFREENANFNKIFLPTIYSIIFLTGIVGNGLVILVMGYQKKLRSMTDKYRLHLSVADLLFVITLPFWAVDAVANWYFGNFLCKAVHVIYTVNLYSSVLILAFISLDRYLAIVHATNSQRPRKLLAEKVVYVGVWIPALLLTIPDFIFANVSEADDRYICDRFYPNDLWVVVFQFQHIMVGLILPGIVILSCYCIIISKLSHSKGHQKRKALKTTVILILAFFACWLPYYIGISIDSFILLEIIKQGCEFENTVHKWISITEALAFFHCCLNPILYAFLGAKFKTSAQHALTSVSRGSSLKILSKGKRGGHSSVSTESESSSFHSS

N.N.[Cl][Pt][Cl] [cisplatin, reference compound]
H460 tumor cell proliferation, agent alone [1]: moderate anti-proliferative effect
A549 tumor cell proliferation, agent alone [2]: moderate anti-proliferative effect

4F-benzoyl-Arg-Arg-Nal-Cys-Tyr-Cit-Lys-DLys-Pro-Tyr-Arg-Cit-Cys-Arg-NH2 ({Benzoyl(4-F)}-RR[Nal]CY[Cit]K[dK]PYR[Cit]CR-NH2; cysteine pairing not given here) [BKT140]
colony formation ([3]; single dose of 100 μg\ml BKT140 on day one, over entire range of CXCL12 concentrations): reduced colony formation
inhibitory effect on colony formation (compared between cell lines) ([4]; 100 μg\ml BKT140 with CXCL12): most evident
inhibitory effect on colony formation (compared between cell lines) ([5]; 100 μg\ml BKT140 with CXCL12): least evident
inhibitory effect on colony formation (compared between cell lines) [6]: most evident
inhibitory effect on colony formation (compared between cell lines) [7]: least evident
NSCLC proliferation (cytostatic / cytotoxic effect) [8]: inhibited; also recorded: both cytostatic and cytotoxic effects
tumor cell survival [8]: reduced tumor cell survival
H460 tumor cell proliferation ([1]; BKT140 20 μg/ml): completely arrest
H460 cytotoxic effect ([1]; BKT140 100 μg/ml): tumor cell death
H460 proliferation, combination effect [1, 10]: additive anti proliferative effects
volume / development of H460 derived tumors (H460 derived tumors; 19 days): significantly reduced; also recorded: significantly delayed
decrease of median tumor volume (H460 derived tumors; H460): ~50%
volume / development of A549 derived tumors (A549 derived tumors; 35 days): much reduced effect
decrease of median tumor volume (A549 derived tumors; A549): ~50%
CXCR4 staining of tumor tissue (binding to tumor expressed CXCR4) (human CXCR4): completely blocked CXCR4 staining
A549 tumor cell proliferation ([2]; BKT140 20 μg/ml): did not affect
A549 tumor cell proliferation ([2]; BKT140 100 μg/ml): significantly reduced
A549 proliferation, combination effect [2, 10]: additive anti proliferative effects
time of return of mobilization to base line ([9]; post BKT140 injection): 24 h
time of peak mobilization of bone marrow derived cells ([9]; post S.C. injection): four to eight

CC(=O)O[C@H]1C(=O)[C@@]2(C)[C@H]([C@H](OC(=O)c3ccccc3)[C@]3(O)C[C@H](OC(=O)[C@H](O)[C@@H](NC(=O)c4ccccc4)c4ccccc4)C(C)=C1C3(C)C)[C@]1(OC(C)=O)CO[C@@H]1C[C@@H]2O [paclitaxel, reference compound]
H460 tumor cell proliferation, agent alone [1]: moderate anti-proliferative effect
A549 tumor cell proliferation, agent alone [2]: moderate anti-proliferative effect

CXCL12: The chemokine CXCL12 (stromal-derived factor-1 or SDF-1), the only natural ligand of CXCR4
colony formation ([3]; CXCL12 25-250 ng/ml, colonies counted after fourteen days): dose dependant increase in colony formation
fold increase in colony number ([4]; 250 ng/ml CXCL12): 2.5 fold
fold increase in colony number ([5]; similar CXCL12 concentrations (250 ng/ml)): 1.4 fold
